Data set [1] deals with cAMP and cAMP-inhibited cGMP 3',5'-cyclic phosphodiesterase 10A (Homo sapiens, UniProt Q9Y233). The data set can be described thus: Displacement of [3H]cAMP from human recombinant PDE10A1 by competitive binding assay. Background: In a radioligand displacement assay an active substance lowers the binding of a labelled ligand.
The nature of data set [2]: Displacement of [3H]cAMP from PDE6 by competitive binding assay.
For data set [3], the target named is cGMP-specific 3',5'-cyclic phosphodiesterase (Homo sapiens, UniProt O76074). The data set can be described thus: Displacement of [3H]cAMP from PDE5A1 by competitive binding assay.
The subject of data set [4] is Rattus norvegicus. Kind of data set: Antipsychotic activity in rat schizophrenia model assessed as inhibition of MK801-induced hyperactivity at 3 mg/kg, po. The format is functional.
Data set [5] deals with Rattus norvegicus. The data set can be described thus: Antipsychotic activity in rat schizophrenia model assessed as inhibition of MK801-induced hyperactivity at 10 mg/kg, po. The data set is classed as functional.
Data set [6] has as its system Rattus norvegicus. Kind of data set: Antipsychotic activity in rat schizophrenia model assessed as inhibition of MK801-induced hyperactivity at 30 mg/kg, po. The data set is classed as functional. Details: scale not given: the % may be the effect or the level left.
Data set [7] has as its system Rattus norvegicus. Kind of data set: Antipsychotic activity in orally dosed rat schizophrenia model assessed as inhibition of MK801-induced hyperactivity. As to conditions: po, read-out: MED. The format is functional.
Data set [8] concerns the target Dual specificity calcium/calmodulin-dependent 3',5'-cyclic nucleotide phosphodiesterase 1A (Homo sapiens, UniProt P54750). Kind of data set: Displacement of [3H]cAMP from PDE1A3 by competitive binding assay.
The target in data set [9] is cGMP-dependent 3',5'-cyclic phosphodiesterase (Homo sapiens, UniProt O00408). The data set can be described thus: Displacement of [3H]cAMP from PDE2A by competitive binding assay.
cGMP-dependent 3',5'-cyclic phosphodiesterase, sequence (O00408 whole entry): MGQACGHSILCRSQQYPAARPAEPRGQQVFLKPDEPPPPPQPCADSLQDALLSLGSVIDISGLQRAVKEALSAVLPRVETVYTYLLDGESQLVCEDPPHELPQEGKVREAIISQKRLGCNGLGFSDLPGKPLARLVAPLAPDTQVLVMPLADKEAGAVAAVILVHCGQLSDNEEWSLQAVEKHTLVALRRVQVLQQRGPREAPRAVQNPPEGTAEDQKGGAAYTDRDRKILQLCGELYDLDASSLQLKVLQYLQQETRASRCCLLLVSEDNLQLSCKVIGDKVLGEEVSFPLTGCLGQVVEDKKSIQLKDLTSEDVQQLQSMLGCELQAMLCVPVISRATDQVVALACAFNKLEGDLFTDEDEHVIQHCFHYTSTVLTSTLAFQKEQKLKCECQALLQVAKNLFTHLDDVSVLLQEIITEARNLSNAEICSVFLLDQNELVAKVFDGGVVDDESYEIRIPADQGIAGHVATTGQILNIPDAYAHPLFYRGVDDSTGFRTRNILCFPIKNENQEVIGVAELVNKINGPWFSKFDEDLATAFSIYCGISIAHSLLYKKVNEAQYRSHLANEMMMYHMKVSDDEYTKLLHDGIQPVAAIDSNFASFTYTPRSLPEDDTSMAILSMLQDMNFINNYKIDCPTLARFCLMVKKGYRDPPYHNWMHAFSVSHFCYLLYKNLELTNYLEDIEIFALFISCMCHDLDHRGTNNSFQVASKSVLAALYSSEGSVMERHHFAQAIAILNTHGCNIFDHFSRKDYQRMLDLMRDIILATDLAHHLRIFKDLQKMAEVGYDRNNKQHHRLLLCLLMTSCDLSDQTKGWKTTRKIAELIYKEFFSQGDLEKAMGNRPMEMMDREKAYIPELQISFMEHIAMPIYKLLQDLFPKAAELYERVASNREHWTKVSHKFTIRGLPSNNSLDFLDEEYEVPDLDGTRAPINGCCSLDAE
In data set [10] the target is High affinity cGMP-specific 3',5'-cyclic phosphodiesterase 9A (Homo sapiens, UniProt O76083). Kind of data set: Displacement of [3H]cAMP from PDE9A1 by competitive binding assay.
High affinity cGMP-specific 3',5'-cyclic phosphodiesterase 9A, sequence (O76083 whole entry): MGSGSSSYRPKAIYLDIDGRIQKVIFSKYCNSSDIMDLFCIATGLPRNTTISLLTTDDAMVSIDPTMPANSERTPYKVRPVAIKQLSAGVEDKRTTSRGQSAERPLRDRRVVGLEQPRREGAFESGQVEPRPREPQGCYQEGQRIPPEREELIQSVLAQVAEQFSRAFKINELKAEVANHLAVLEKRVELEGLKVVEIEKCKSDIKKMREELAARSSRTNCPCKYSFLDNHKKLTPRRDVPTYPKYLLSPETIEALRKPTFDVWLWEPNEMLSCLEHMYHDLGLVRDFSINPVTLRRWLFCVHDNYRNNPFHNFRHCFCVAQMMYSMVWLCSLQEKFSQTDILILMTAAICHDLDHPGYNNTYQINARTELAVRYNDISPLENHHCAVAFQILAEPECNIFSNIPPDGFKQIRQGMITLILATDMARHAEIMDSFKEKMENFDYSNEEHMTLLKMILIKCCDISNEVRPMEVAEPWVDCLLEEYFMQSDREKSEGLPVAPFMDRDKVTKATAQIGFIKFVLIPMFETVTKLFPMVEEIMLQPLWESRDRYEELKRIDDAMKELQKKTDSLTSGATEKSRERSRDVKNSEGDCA
Data set [11] addresses High affinity cAMP-specific and IBMX-insensitive 3',5'-cyclic phosphodiesterase 8A (Homo sapiens, UniProt O60658). The data set can be described thus: Displacement of [3H]cAMP from PDE8A1 by competitive binding assay.
In data set [12] the target is High affinity 3',5'-cyclic-AMP phosphodiesterase 7A (Homo sapiens, UniProt Q13946). Kind of data set: Displacement of [3H]cAMP from PDE7A1 by competitive binding assay.
High affinity 3',5'-cyclic-AMP phosphodiesterase 7A, sequence (Q13946 whole entry): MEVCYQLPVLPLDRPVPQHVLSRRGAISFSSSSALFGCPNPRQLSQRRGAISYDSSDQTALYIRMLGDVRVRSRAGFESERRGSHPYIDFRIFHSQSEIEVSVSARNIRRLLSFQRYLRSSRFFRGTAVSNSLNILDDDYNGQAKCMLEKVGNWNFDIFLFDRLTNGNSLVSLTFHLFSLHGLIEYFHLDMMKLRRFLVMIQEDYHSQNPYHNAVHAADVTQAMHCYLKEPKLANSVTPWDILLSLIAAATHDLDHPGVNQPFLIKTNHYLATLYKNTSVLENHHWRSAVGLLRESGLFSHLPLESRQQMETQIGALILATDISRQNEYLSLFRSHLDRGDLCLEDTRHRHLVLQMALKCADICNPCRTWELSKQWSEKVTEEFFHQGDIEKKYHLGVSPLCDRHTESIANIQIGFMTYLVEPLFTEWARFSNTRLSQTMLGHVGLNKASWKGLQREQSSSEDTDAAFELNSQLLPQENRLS
Data set [13] has as its target cGMP-inhibited 3',5'-cyclic phosphodiesterase 3A (Homo sapiens, UniProt Q14432). Kind of data set: Displacement of [3H]cAMP from PDE3A by competitive binding assay.
The target in data set [14] is 3',5'-cyclic-AMP phosphodiesterase 4B (Homo sapiens, UniProt Q07343). Kind of data set: Displacement of [3H]cAMP from PDE4B2 by competitive binding assay.
Data set [15] in a line: Drug level in rat brain after 6 hrs. The format is ADME, organism-based. To be noted: read-out: Ct.
The species named for data set [16] is Rattus norvegicus. Kind of data set: Ratio of drug level in brain to plasma in rat after 6 hrs. The data set is classed as ADME, organism-based.
Data set [17] deals with Rattus norvegicus. The data set can be described thus: Toxicity in orally dosed rat schizophrenia model assessed as induction of hypolocomotion. The format is organism-based. As to conditions: in vivo, po.
A further data set has as its target Cytochrome P450 2D6 (Homo sapiens, UniProt P10635). The data set can be described thus: Inhibition of CYP2D6 up to 20 uM. The format is ADME.
The target of a further data set is Cytochrome P450 3A4 (Homo sapiens, UniProt P08684). The data set can be described thus: Inhibition of CYP3A4 up to 20 uM. The format is ADME.
Cytochrome P450 3A4, sequence (P08684 whole entry): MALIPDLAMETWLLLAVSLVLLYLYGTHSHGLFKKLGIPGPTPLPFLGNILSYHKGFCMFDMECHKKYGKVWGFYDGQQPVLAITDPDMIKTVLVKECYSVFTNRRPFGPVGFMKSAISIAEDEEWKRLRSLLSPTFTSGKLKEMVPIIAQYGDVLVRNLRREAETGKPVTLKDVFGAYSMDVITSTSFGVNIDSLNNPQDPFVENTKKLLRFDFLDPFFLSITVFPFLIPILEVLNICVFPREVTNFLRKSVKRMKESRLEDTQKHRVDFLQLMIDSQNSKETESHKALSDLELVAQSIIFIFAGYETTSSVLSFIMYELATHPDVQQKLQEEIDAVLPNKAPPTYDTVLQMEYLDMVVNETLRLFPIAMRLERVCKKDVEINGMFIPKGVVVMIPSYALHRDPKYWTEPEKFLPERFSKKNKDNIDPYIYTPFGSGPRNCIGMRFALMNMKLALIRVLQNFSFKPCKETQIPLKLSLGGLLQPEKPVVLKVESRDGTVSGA
The target of the next data set is Cytochrome P450 2C9 (Homo sapiens, UniProt P11712). Kind of data set: Inhibition of CYP2C9 up to 20 uM. The data set is classed as ADME.
The target of the next data set is hERG (KCNH2) (Homo sapiens, UniProt Q12809). The data set can be described thus: Inhibition of human ERG at 10 uM.
A short description of data set [18]: Clearance in human hepatocytes assessed per million cells. The data set is classed as ADME, cell-based, Hepatocyte. To be noted: read-out: CLH.
The nature of data set [19]: Clearance in rat hepatocytes assessed per million cells. The data set is classed as ADME, cell-based, Hepatocyte. To be noted: read-out: CLH.
The nature of data set [20]: Clearance in monkey hepatocytes assessed per million cells. The data set is classed as ADME, cell-based, Macaca mulatta, Hepatocyte. As to conditions: rhesus monkey, read-out: CLH.
Data set [21] in a line: Protein binding in rat. The data set is classed as ADME, organism-based. To be noted: plasma, read-out: PB (converted).

Calls of active or inactive are those of the source. The rule behind the calls is not given here. A value given as a limit tells only on which side of the number the result lay.

cAMP and cAMP-inhibited cGMP 3',5'-cyclic phosphodiesterase 10A, sequence (Q9Y233 whole entry): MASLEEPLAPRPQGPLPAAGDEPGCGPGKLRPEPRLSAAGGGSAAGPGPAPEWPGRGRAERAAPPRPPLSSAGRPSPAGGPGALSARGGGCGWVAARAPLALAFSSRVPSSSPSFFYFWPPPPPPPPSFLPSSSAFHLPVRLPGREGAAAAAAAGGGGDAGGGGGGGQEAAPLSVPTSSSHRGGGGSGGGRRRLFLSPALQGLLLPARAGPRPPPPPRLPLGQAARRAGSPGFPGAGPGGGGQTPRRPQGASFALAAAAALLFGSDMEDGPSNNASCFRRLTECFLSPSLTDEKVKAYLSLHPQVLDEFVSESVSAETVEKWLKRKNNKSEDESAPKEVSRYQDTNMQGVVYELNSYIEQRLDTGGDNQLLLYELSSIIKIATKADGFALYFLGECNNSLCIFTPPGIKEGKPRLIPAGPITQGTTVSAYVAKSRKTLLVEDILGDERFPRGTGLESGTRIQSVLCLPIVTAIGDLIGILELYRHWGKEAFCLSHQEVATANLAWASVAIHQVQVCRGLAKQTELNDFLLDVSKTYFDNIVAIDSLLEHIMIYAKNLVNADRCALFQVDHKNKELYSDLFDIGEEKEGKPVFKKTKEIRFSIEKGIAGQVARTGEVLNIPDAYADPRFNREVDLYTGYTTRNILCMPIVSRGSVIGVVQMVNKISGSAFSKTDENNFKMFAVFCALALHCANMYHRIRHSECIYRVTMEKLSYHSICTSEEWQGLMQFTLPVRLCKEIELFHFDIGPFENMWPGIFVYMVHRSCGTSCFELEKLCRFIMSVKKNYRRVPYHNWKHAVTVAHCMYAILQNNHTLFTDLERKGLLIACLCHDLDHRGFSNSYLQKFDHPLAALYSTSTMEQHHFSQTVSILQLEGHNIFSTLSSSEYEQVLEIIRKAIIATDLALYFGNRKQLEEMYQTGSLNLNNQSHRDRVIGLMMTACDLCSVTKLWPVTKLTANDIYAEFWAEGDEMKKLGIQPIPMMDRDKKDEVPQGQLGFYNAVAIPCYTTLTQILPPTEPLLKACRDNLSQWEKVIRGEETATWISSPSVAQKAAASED
High affinity cAMP-specific and IBMX-insensitive 3',5'-cyclic phosphodiesterase 8A, sequence (O60658 whole entry): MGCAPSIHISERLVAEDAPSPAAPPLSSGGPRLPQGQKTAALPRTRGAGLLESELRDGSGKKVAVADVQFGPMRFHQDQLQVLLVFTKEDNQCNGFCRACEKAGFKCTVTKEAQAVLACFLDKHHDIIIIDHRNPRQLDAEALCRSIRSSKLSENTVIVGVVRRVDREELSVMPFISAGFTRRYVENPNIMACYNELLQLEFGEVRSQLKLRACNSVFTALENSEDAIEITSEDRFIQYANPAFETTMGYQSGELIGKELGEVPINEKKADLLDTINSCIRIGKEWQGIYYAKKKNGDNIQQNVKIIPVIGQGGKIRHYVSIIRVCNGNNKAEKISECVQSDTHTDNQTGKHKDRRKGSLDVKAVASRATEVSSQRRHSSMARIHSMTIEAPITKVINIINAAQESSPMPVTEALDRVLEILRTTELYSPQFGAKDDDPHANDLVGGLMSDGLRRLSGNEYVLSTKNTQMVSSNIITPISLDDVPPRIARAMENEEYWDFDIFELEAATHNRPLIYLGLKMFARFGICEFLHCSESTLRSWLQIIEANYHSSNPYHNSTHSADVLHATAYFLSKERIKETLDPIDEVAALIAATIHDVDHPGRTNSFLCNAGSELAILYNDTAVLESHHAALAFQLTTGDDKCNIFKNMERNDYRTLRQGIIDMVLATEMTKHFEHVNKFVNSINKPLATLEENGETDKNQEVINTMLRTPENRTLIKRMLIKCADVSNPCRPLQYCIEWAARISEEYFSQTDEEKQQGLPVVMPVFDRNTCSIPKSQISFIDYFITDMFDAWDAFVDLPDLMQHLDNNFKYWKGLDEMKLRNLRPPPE
Dual specificity calcium/calmodulin-dependent 3',5'-cyclic nucleotide phosphodiesterase 1A, sequence (P54750 whole entry): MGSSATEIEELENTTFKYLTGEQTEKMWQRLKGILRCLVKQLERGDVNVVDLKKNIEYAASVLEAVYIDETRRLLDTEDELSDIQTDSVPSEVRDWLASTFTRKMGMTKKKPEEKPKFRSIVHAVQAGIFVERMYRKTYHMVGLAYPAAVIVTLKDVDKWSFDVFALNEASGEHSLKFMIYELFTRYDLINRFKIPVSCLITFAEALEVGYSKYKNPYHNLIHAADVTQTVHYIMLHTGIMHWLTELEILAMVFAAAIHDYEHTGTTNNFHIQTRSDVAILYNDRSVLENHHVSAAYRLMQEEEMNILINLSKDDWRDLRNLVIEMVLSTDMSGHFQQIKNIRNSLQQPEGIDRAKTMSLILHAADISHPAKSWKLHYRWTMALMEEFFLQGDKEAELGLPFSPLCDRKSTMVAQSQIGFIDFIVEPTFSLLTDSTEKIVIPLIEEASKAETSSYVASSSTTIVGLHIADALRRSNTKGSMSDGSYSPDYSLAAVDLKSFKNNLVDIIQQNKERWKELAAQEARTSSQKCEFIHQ

As a reminder, the Ki is a measure of affinity in units of concentration, obtained from inhibition or displacement. Consider `Cc1cc(OC(F)(F)F)cc2c(CN3CCCOCC3)c3c(C)n[nH]c3nc12`, for which the Ki in data set [1] worked out at 19 nM.

Consider `COc1cc(C)c2nc3[nH]nc(C)c3c(CN3CC[C@@H](O)C3)c2c1`, for which the Ki is 4700 nM in data set [2], 6400 nM in data set [3] and 3 nM in [1]. Besides, the outcome with Rattus norvegicus [4] and in the data set with Rattus norvegicus [5] was inactive. For the same molecule, in the data set on Rattus norvegicus [6], the Activity was determined as 102%.

For `COc1cc(C)c2nc3[nH]nc(C)c3c(CN3CCNCC3)c2c1`, the Ki in [1] was determined as 49 nM. Further, in the data set on Rattus norvegicus [6], the outcome was inactive.

In the case of `COc1cc(C)c2nc3[nH]nc(C)c3c(CN3CCC(CO)C3)c2c1` (stereo not drawn), in [1], the Ki turned out to be 32 nM. For the same molecule, the result with Rattus norvegicus [4] and with Rattus norvegicus [5] was inactive. Further, the Activity with Rattus norvegicus [6] came to 38%.

For `COc1cc(C)c2nc3[nH]nc(C)c3c(CN3CCCC3)c2c1`, the Ki in [1] came to 24 nM. For the same molecule, the figures for the Activity in the data set with Rattus norvegicus [4], with Rattus norvegicus [5] and in the data set on Rattus norvegicus [6] were 96%, 107% and 122%, respectively. Also, the minimal effective dose in the data set on Rattus norvegicus [7] is 1 mg/kg.

Consider `COc1cc(OC)c2nc3[nH]nc(C)c3c(CN3CCCOCC3)c2c1`, for which the Ki in data set [1] worked out at 14 nM.

With `COc1cc(C)c2nc3[nH]nc(C)c3c(CN3C4CCC3CC4)c2c1`, the Ki in data set [1] was 1200 nM.

As to `COc1cc(C)c2nc3[nH]nc(C)c3c(CN3CCC(F)CC3)c2c1`, the Ki in [1] came to 202 nM.

Consider `COc1ccc2nc3[nH]nc(C)c3c(CN3CCCOCC3)c2c1`, for which, in data set [1], the Ki was 153 nM.

Take `COc1cc(C)c2nc3[nH]nc(C)c3c(CN3CCCCC3)c2c1`: the Ki in [1] was found to be 804 nM.

`COc1cc(C)c2nc3[nH]nc(C)c3c(CN3CCOC(C)(C)C3)c2c1`: the Ki in [1] turned out to be 171 nM.

With `Cc1cc(O)cc2c(CN3CCCOCC3)c3c(C)n[nH]c3nc12`, the Ki in data set [2] was determined as 2400 nM; in [3], 20800 nM; in data set [1], 2 nM.

For `COc1cc(C)c2nc3[nH]nc(C)c3c(CN3CCOC(CO)C3)c2c1` (stereo not drawn), the Ki in data set [2] came to 300 nM; in [3], 5000 nM; in data set [1], 0.6 nM. For the same molecule, the outcome in the data set with Rattus norvegicus [4] and in the data set with Rattus norvegicus [5] was inactive. Besides, the Activity in the data set on Rattus norvegicus [6] was 104%.

As for `COCCOc1cc(C)c2nc3[nH]nc(C)c3c(CN3CCCOCC3)c2c1`, the Ki in data set [8] is more than 10000 nM; in data set [9], more than 10000 nM; in data set [2], 5900 nM; in [3], 24400 nM; in data set [1] it was 1 nM; in data set [10] it was more than 10000 nM. For the same molecule, the Ki in data set [11], in data set [12], in [13] and in data set [14] was more than 10000 nM in each case.

In general, inhibition refers to the percentage by which the read-out fell short of the control. Take `COc1cc(C)c2nc3[nH]nc(C)c3c(CN3CCCOCC3)c2c1`: the Ki in data set [2] is 2100 nM; in data set [3], 9700 nM. Besides, the Activity in the data set on Rattus norvegicus [4] was found to be 66%; in the data set on Rattus norvegicus [5], 120%; with Rattus norvegicus [6], 103%. For the same molecule, the minimal effective dose with Rattus norvegicus [7] was 3 mg/kg. For the same molecule, the concentration at 6 h in data set [15] was 42 ng/g. Further, in the data set filed under Rattus norvegicus [16], the BPR is reported as 1.56. Also, in the data set on Rattus norvegicus [17], the MED amounted to 30 mg/kg. Further, the “inhibition (INH)” value on Cytochrome P450 2D6, against Cytochrome P450 3A4 and on Cytochrome P450 2C9 was “Not Active” each time. For the same molecule, the inhibition at 10 µM on hERG (KCNH2) stood at 5.3%. Also, the hepatocyte CLint is 8.3 µL/min/1e6 cells in [18], less than 1 µL/min/1e6 cells in [19] and 6 µL/min/1e6 cells in data set [20]. Further, the fraction unbound in data set [21] was 0.03.

On to `COc1cc(C)c2nc3[nH]nc(C)c3c(CN3CC4CC3CO4)c2c1` (stereo not drawn), for which the Ki in [1] was determined as 46 nM.

As to `COc1cc(C)c2nc3[nH]nc(C)c3c(CN3CCCC(C(F)(F)F)C3)c2c1` (stereo not drawn), the Ki in data set [1] is 353 nM.

For `Cc1cc(Cl)cc2c(CN3CCCOCC3)c3c(C)n[nH]c3nc12`, in [1], the Ki was 41 nM. The result in the data set on Rattus norvegicus [4] and in the data set with Rattus norvegicus [5] was inactive. The Activity in the data set on Rattus norvegicus [6] is on record as 87%.

Consider `COc1cc(C)c2nc3[nH]nc(C)c3c(CN3CCC(O)CC3)c2c1`, for which the Ki in [1] was found to be 57 nM. The outcome with Rattus norvegicus [4] and in the data set with Rattus norvegicus [5] was inactive. The Activity in the data set on Rattus norvegicus [6] was determined as 136%.

For `Cc1cc(OC(C)C)cc2c(CN3CCCOCC3)c3c(C)n[nH]c3nc12`, the Ki in data set [1] was found to be 8 nM.

As to `COc1cc(C)c2nc3[nH]nc(C)c3c(CN3C[C@@H](C)O[C@@H](C)C3)c2c1`, the inhibition constant Ki in data set [1] came out at 26 nM.

Consider `COc1cc(C)c2nc3[nH]nc(C)c3c(CN3CCC(C(F)(F)F)CC3)c2c1`, for which the Ki in data set [1] is 871 nM.

Take `COc1cc(C)c2nc3[nH]nc(C)c3c(CN3[C@@H]4CC[C@H]3C[C@@H](O)C4)c2c1`: the Ki in [1] turned out to be 265 nM.

Regarding `Cc1n[nH]c2nc3c(OC(F)(F)F)cc(Br)cc3c(CN3CCCOCC3)c12`, in data set [1], the Ki came out at 37 nM.

Consider `COc1cc(C)c2nc3[nH]nc(C)c3c(CN3CCNC(=O)C3)c2c1`, for which the Ki in data set [1] is 9 nM. Moreover, in the data set on Rattus norvegicus [6], the outcome was inactive.

In the case of `Cc1n[nH]c2nc3ccc(C(F)(F)F)cc3c(CN3CCCOCC3)c12`, in data set [1], the Ki worked out at 104 nM.

With `COc1cc(C)c2nc3[nH]nc(C)c3c(CN3CCOCC3)c2c1`, the results for the Ki in data set [2] and in data set [3] were 2000 nM and 10600 nM, respectively. In addition, the outcome in the data set with Rattus norvegicus [4] was inactive. Besides, the Activity with Rattus norvegicus [5] was 131%; in the data set with Rattus norvegicus [6], 109%.

`Cc1cc(Cl)cc2c(CN3CC4CC3CO4)c3c(C)n[nH]c3nc12` (stereo not drawn): the Ki in data set [1] stood at 60 nM.

As to `COc1cc(C)c2nc3[nH]nc(C)c3c(CN3CCOC(C)C3)c2c1` (stereo not drawn), the figures for the Ki in data set [2], in data set [3] and in data set [1] were 8300 nM, 8900 nM and 3 nM, respectively. Also, the outcome in the data set with Rattus norvegicus [4] was inactive. The Activity in the data set on Rattus norvegicus [5] is on record as 88%; in the data set with Rattus norvegicus [6] it was 130%.

With `Cc1cc(Cl)cc2c(CN3C4CCC3CC4)c3c(C)n[nH]c3nc12`, the Ki in data set [1] was 229 nM.

Take `COc1cc(C)c2nc3[nH]nc(C)c3c(CN3CCN[C@H](C)C3)c2c1`: the Ki in [1] was 30 nM. Also, the outcome in the data set with Rattus norvegicus [6] was inactive.

Source of the values: ChEMBL document CHEMBL1938364, “Discovery of orally active pyrazoloquinolines as potent PDE10 inhibitors for the management of schizophrenia” (Bioorg Med Chem Lett, 2012).
